Values of other authors in patent US11752142B2, “Oral pharmaceutical compositions of dabigatran etexilate” (Breckenridge Pharmaceutical, Inc., priority 2012, dated 2023).
Where a name gives a salt, the structure may show the parent alone. Read-outs that look alike come from different tables or passages of the source.

Assays:
[1] = not given; remark: listed apart in the source
[2] = not given; remark: listed apart in the source

CCCCCCOC(=O)NC(=N)c1ccc(NCc2nc3cc(C(=O)N(CCC(=O)OCC)c4ccccn4)ccc3n2C)cc1 [DEM, dabigatran etexilate mesylate]
aqueous solubility (acidic media): rather high solubility | aqueous solubility (neutral and basic media): very poor solubility | BCS class (poor aqueous solubility but good membrane permeability): BCS Class II | sensitivity to light irradiation ([1]; light irradiation): not sensitive to light irradiation | stability ([1]; solid state): stable in the solid state

CCCCCCOC(=O)NC(=N)c1ccc(NCc2nc3cc(C(=O)N(CCC(=O)OCC)c4ccccn4)ccc3n2C)cc1 [dabigatran etexilate, 3-[(2-{4-(hexyloxycarbonylamino-imino-methyl)-phenylamino]methyl}-1-methyl-1H-benzimidazol-5-carbonyl)-pyridin-2-yl-amino-propionic acid ethyl ester]
Tmax ([2]; absorption of the active): 45 minutes-1 hour

[H]/N=C(/N)c1ccc(NCc2nc3cc(C(=O)N(CCC(=O)O)c4ccccn4)ccc3n2C)cc1 [dabigatran]
absolute bioavailability ([2]; dabigatran following oral administration of dabigatran etexilate): 3-7% | elimination half life ([2]; following oral administration of dabigatran etexilate): 12 to 17 h
